According to patent US6573060B1, “Methods and compositions for targeting DNA metabolic processes using aminoglycoside derivatives” (University of Virginia Patent Foundation, priority 1997, dated 2003):
pKi: −log10 of the molar value.

Legend:
DNA-dependent ATPase A = biological target: T1, DNA-dependent ATPase A (Bos taurus, UniProt Q9TTA5); assay: Inhibition of ATP hydrolysis by DNA-dependent ATPase A (overexpressed 82 kDa ADAAD); format: biochemical, bovine; conditions: Ki, Table 4; determined in the presence of effector
T1 sequence (Q9TTA5 222-940): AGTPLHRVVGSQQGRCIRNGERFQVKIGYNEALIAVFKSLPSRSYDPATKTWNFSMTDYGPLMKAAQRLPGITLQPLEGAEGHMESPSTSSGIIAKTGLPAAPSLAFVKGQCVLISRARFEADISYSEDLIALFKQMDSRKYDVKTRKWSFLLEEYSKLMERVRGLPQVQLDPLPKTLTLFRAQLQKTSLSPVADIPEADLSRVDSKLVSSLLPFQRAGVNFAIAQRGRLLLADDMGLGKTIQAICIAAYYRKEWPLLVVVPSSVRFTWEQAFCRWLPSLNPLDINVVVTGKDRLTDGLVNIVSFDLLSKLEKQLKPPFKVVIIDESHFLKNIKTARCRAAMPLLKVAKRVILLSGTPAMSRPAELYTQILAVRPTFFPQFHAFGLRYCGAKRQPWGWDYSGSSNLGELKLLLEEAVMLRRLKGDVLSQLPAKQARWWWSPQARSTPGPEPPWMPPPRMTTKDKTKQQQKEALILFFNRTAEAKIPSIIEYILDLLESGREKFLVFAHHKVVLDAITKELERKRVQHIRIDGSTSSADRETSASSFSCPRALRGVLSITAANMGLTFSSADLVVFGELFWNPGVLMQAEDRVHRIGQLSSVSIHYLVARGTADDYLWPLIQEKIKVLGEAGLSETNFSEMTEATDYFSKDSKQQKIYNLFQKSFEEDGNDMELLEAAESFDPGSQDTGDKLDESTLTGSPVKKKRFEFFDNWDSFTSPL
Method: Enzyme (0.2 units (one unit is the amount of enzyme required to hydrolyze 1 μmole of adenosine triphosphate per min)) was mixed with 50 mM Tris-SO4, pH 7.5, 1 mM MgCl2, 5 mM β-mercaptoethanol, 0.5 mg/mL bovine serum albumin, 2 mM phosphoenol pyruvate, 0.03 mg/mL pyruvate kinase, 10 nM of stem-loop DNA, and 2 mM adenosine triphosphate in a total volume of 100 μL. The reaction was typically incubated at 37° C. for 10-60 minutes. At the end of the designated time, 225 μL of 10% sodium dodecyl sulfate and 350 μL of water were added to stop the reaction. Color development requires the addition of two reagents: 180 μL of reagent A (prepared by mixing equal volumes of 60 to 70% perchloric acid and 5% ammonium molybdate in water) and 45 μL of reagent B (0.2 g 1:2:4 aminonaphthol sulfonic acid, 12.0 g sodium metabisulfite, and 2.4 g sodium sulfite dissolved in 100 mL of water) was added. The reaction was incubated at room temperature for 10 minutes and the absorbance was read at 720 nm. The color development was time-dependent and therefore samples must be read at exactly 10 minutes.
Enzyme (0.2 units (one unit is the amount of enzyme required to hydrolyze 1 μmole of adenosine triphosphate per min)) was mixed with 25 mM Tris-acetate pH 7.5, 6 mM Mg(acetate)2, 60 mM KCl, 5 mM β-mercaptoethanol, 3 mM phosphoenol pyruvate, 10 units/mL pyruvate kinase, 10 units/mL lactate dehydrogenase 10 nM DNA, 2 mM adenosine triphosphate, and 0.1 mg/mL NADH in a final volume of 1 mL. The progress of the reaction at 37° C. was monitored at 340 nm using an HP8452 spectrophotometer.
Enzyme (0.2 U) was mixed with 50 mM Tris-SO4, pH 7.5, 1 mM MgCl2, 5 mM β-mercaptoethanol, 0.5 mg/mL bovine serum albumin, 2 mM phosphoenol pyruvate, 0.03 mg/mL pyruvate kinase, 10 nM of stem-loop DNA, and 2 mM adenosine triphosphate in a total volume of 50 μL. Three (3) μCi of [^32P]-γ-adenosine triphosphate was added to the reaction and typical incubation was for 60 minutes 37° C. EDTA (25 mM) was added to stop the reaction. 10 μL of the reaction was spotted on a poly(ethylenimine)-cellulose plate. The plate was developed using 0.9M LiCl and 7M urea as solvent system. The plate was allowed to dry and autoradiographed either using X-OMAT film or a phosphorimager. […]

DNA-independent ATPases = assay: Effect on DNA-independent ATPases; format: biochemical
Method: (§1) A number of different ATPases, both DNA-dependent and DNA-independent, were analyzed for their behavior with respect to these drugs.

DNA-dependent ATPases = assay: Effect of millimolar neomycin on DNA-dependent ATPases; format: biochemical; conditions: millimolar concentrations
Method: as §1
This inhibition is directly attributable to the positive charge that the aminoglycosides carry and thus the sequestering of the DNA (negatively charged) away from the enzyme (the binding of kanamycin directly to DNA has been confirmed—data not shown). In addition, the phosphoneomycin has differing effects on DNA-dependent ATPases from various sources and of various function.

MCF-7 = assay: MTS cell survival assay, MCF-7 breast cancer cells; format: cell-based; conditions: MCF-7, FIG. 9
Method: (§2) The effect of phosphoaminoglycosides on tumor cell growth was tested in cell culture inhibition studies. 5000 cells were plated in a total volume of 50 μl in a 96 well titer plate. After 24 hours, 50 μl of media and drugs, to the required final concentration, were added. The plates were incubated at 37° C. for 5 days. On the 5th day, the fraction of surviving cells was estimated using a non-radioactive cell proliferation assay (CellTiter 96 AQueous Cell Proliferation Assay from Promega).
(§3) This is a colorimetric assay that determines the number of viable cells. The assay measures the bioreduction of a tetrazolium compound (3-(4,5-dimethylthiazol-2-yl)-5-(3-carboxymethoxyphenyl)-2-(4-sulfophenyl)-2H-tetrazolium, inner salt; MTS), via an electron coupling reagent (phenazine methosulfate; PMS), to formazan, which is soluble in the tissue culture medium. The absorbance of formazan at 490 nm can be measured from the 96 well assay plate without additional processing. The conversion of MTS into the aqueous soluble formazan is accomplished by dehydrogenase enzymes found in metabolically active cells. The quantity of formazan product as measured by the amount of 490 nm absorbance is directly proportional to the number of living cells in culture. […] 20 μl of PMS/MTS solution was added to the cells and the plates were incubated at 37° C. for 2 hours before measuring the absorbance at 490 nm. […]

MDA-MB-231 = assay: MTS cell survival assay, MDA-MB-231 breast cancer cells; format: cell-based; conditions: MDA-MB-231, FIG. 9
Method: as §2, §3

PC3 cell line = assay: MTS cell survival assay, PC3 prostate cancer cells; format: cell-based, human
Method: as §2
This is a colorimetric assay that determines the number of viable cells. The assay measures the bioreduction of a tetrazolium compound (3-(4,5-dimethylthiazol-2-yl)-5-(3-carboxymethoxyphenyl)-2-(4-sulfophenyl)-2H-tetrazolium, inner salt; MTS), via an electron coupling reagent (phenazine methosulfate; PMS), to formazan, which is soluble in the tissue culture medium. The absorbance of formazan at 490 nm can be measured from the 96 well assay plate without additional processing. The conversion of MTS into the aqueous soluble formazan is accomplished by dehydrogenase enzymes found in metabolically active cells. The quantity of formazan product as measured by the amount of 490 nm absorbance is directly proportional to the number of living cells in culture. 100 μl of the PMS reagent (Promega) was mixed with 2.0 ml of MTS solution (Promega). 20 μl of PMS/MTS solution was added to the cells and the plates were incubated at 37° C. for 2 hours before measuring the absorbance at 490 nm.
In an initial experiment, four drugs (A-kanamycin, B-phosphokanamycin, C-neomycin, and D-phosphoneomycin) were added to prostate cancer cell cultures in a blind fashion. Two prostate cancer cell lines were incubated with each of the drugs and assayed for cell survivability using the MTS assay (Promega).
5000 cells were grown overnight in media and each respective drug (A-kanamycin, B-phosphokanamycin, C-neomycin, and D-phosphoneomycin) was added on the second day. […] Each point is the average of readings from three wells.

NCC[C@H](O)C(=O)N[C@@H]1C[C@H](N)[C@@H](O[C@H]2O[C@H](CN)[C@@H](O)[C@H](OP(=O)(O)O)[C@H]2O)[C@H](O)[C@H]1O[C@H]1O[C@H](CO)[C@@H](O)[C@H](N)[C@H]1O [3′ phosphorylated amikacin]
pKi (DNA-dependent ATPase A): 6.78

CN[C@@H]1[C@@H](O)[C@@H](O[C@@H]2[C@@H](O)[C@H](O[C@H]3O[C@H](CO)[C@@H](O)[C@H](OP(=O)(O)O)[C@H]3N)[C@@H](N)C[C@H]2N)OC[C@H]1O [3′ phosphorylated gentamicin]
pKi (DNA-dependent ATPase A): 6.66

CN[C@@H]1[C@@H](O)[C@@H](O[C@@H]2[C@@H](O)[C@H](O[C@H]3O[C@H]([C@@H](C)O)[C@@H](O)[C@H](OP(=O)(O)O)[C@H]3N)[C@@H](N)C[C@H]2N)OC[C@]1(C)O [phosphogeneticin, 3′-phosphogeneticin]
pKi (DNA-dependent ATPase A): 6.72

Neomycin B & C (^˜15% Neomycin C) [reference compound]
effect on DNA-independent ATPases (in words) (DNA-independent ATPases): neither affected
inhibition of all DNA-dependent ATPases (in words) (DNA-dependent ATPases): some inhibition
effect on cell growth (in words) (MCF-7): no effect
effect on cell growth (in words) (MDA-MB-231): no effect
effect on PC3 cells (in words) (PC3 cell line; FIG. 8, day five): neither kanamycin nor neomycin had any effect
effect on PC3 cell survival (in words) (PC3 cell line; concentrations in excess of 1 mM): increased cell survival
